Read-outs that look alike come from different tables or passages of the source.
Columns and labels:
MIF [1] = molecular target: T1, MIF (Homo sapiens, UniProt P14174); assay: MIF tautomerase activity inhibition (4-HPP substrate, UV 306 nm); format: biochemical; conditions: for potency relative to corresponding chloro-substituted intermediate: iodo compound vs chloro intermediate
T1 construct: His tag (C); made in house; host or cells: Escherichia coli BL21 (DE3), pET-20b(+)
T1 sequence (P14174 2-115 limits assumed): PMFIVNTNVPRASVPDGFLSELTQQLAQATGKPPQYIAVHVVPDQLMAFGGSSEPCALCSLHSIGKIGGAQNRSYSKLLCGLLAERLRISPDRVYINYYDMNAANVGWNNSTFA
Protocol: 2. Preparation of recombinant MIF and MIF2.
The detailed procedure to produce C-terminal His-tagged recombinant human MIF was reported in our previous publications.[1,4,5] rhMIF was expressed through transforming a pET-20b(+) plasmid containing the target gene into Escherichia coli BL21 (DE3) according to literature procedures.[6] Overexpression was performed and cells were collected and sonicated.
The obtained supernatant was applied to a medium pressure chromatography system (Biologic Duoflow) equipped with a His trap HP (5 mL) column with detection at 280 nm for the eluent.
The column was washed with a binding buffer containing 50 mM Tris and 10% glycerol at pH 7.4 and eluted with elution buffer containing 500 mM imidazole, 50 mM Tris, 10% glycerol at pH 7.4. The pure fractions (as judged by SDS-PAGE) were pooled and subjected to a PD-10 column (GE healthcare) that was equilibrated with PBS buffer at pH 7.4 to remove the high concentration of imidazole. The collected MIF solution was divided into 50 µL aliquots and stored at –80 °C. Purity of obtained protein was tested by SDS-PAGE and Coomassie staining.
The concentration of protein was determined using the Bradford assay.
(§1) The detailed procedure to produce recombinant human MIF2 was reported in our previous publications.[7] Gene sequences of the human MIF2 gene (Invitrogen) was adapted to bacterial expression. After subcloning into a pET20b(+) expression vector, IPTG-induced expression was performed in E.coli strain BL21(DE3). MIF2 proteins were overproduced overnight and harvested cells were resuspended and sonicated. The soluble fraction was puriﬁed using a Q sepharose column (GE Healthcare) with a gradient of NaCl. The fractions containing MIF2 were brought to 1.7 M ammonium sulfate and loaded on a phenyl sepharose column (GE Healthcare) and eluted with a gradient to 0 M ammonium sulfate in a 20 mM sodium phosphate buffer, pH 8.0. Finally, the proteins were purified by size exclusion chromatography on a Superdex75 column (GE Healthcare) in 20 mM sodium phosphate buffer, pH 8.0, with an elution volume characteristic for trimeric MIF2. The collected protein was concentrated using a VivaSpin centrifugation column with a molecular weight cut off at 5000 D a (Sartorius Stedim Biotech GmbH). Purified proteins were aliquoted, snap frozen in liquid nitrogen, and stored at –80 °C. Purity of obtained protein was tested by SDS-PAGE and coomassie staining. The concentration of protein was determined using the Bradford a ssay.
(§2) 3.1 MIF and MIF2 Inhibition
(§3) The protocol for measuring inhibition of MIF or MIF2 tautomerase enzyme activity was described previously.[5] 500 nM MIF solution (180 µL) or 100 nM MIF2 solution (180 µL) in boric acid buffer ([…], pH 6.2) was mixed with 20 mM EDTA solution (10 µL) in demineralized water. A solution of the desired compound dissolved in DMSO (10 µL) or blank DMSO (10 µL) was added. The resulting mixture was preincubated at room temperature for 10 minutes.
(§4) Subsequently, 50 µL of this mixture was mixed with 50 µL of a 1 mM 4-HPP solution for MIF or 1 mM PP solution for MIF2 in ammonium acetate buffer (50 mM, pH 6.0). Thereafter, MIF or MIF2 tautomerase activity was monitored by measuring the increase of UV absorbance at 306 nm for MIF or 300 nm for MIF2 over time. The MIF or MIF2 tautomerase activity of the mixture with blank DMSO dilution was set to 100% enzyme activity. Noncatalyzed conversion of the substrate in the mixture without MIF or MIF2 was set to 0%. The data acquired from the first 3 minutes of the measurement were used to calculate the initial conversion speed. All experiments were performed in triplicate and data processing was done using the program […]
(§5) Table S1. IC50 values (10 min) and inactivation parameters of synthesized compounds.
(§6) (1 picture or pasted object on this page, not shown here)

MIF2 [2] = molecular target: T2, MIF2 (Homo sapiens, UniProt P30046); assay: MIF2 tautomerase activity inhibition (PP substrate, UV 300 nm); format: biochemical
T2 construct: made in house; host or cells: E. coli BL21(DE3), pET20b(+)
Protocol: 2. Preparation of recombinant MIF and MIF2. […]
Purity of obtained protein was tested by SDS-PAGE and Coomassie staining. […]
as §1, §2, §3, §4, §5, §6

MIF [3] = molecular target: T1, MIF; assay: Labeling of recombinant MIF by probe 8, SDS-PAGE in-gel fluorescence, competition; format: binding; conditions: pre-treatment of MIF with competitor, Figure 2C, D
Protocol: (§7) 4. Purified protein labeling and Mass spectra
(§8) 4.1 MIF or MIF2 labeling with probe 8
(§9) MIF or MIF2 were diluted to desired concentration with PBS buffer and incubated with probe
(§10) 8 at corresponding concentration and for corresponding time. Subsequently, the mixture was
(§11) denatured (99 °C, 10 min). Labeled protein and free probe were separated by 12% Bis-Tris gel
(§12) (Bio-Rad Laboratories, #4561084). Probe 8 labeled protein was visualized using in-gel
(§13) 4.2 MIF or MIF2 labeling and mass spectra
(§14) Figure S2. Mass spectra of labeled MIF2. (A) Native MIF2 and probe 8 (B) or probe 9 (C)
as §6

MIF2 [4] = molecular target: T2, MIF2; assay: Labeling of recombinant MIF2 by probe 8, SDS-PAGE in-gel fluorescence, competition; format: binding; conditions: Figure 2G
Protocol: as §7, §8, §9, §10, §11, §12, §13, §14, §6

MIF [5] = molecular target: T1, MIF; assay: Kitz-Wilson inactivation kinetics on MIF tautomerase; format: biochemical; conditions: for KI (inactivation) / kinact: Kitz-Wilson analysis, ±SD, n=3; for KI (inactivation): read-out: KI MIF (inhibition constant); for kinact: read-out: kinact MIF (rate of enzyme inactivation) (converted)
Protocol: (§15) In order to derive the kinetic parameters for inactivation of MIFand MIF2, we employed the approach described by Kitz and Wilson. Briefly, four different concentrations of the inhibitor with four different pre-incubation times were selected. The assay conditions are described above with the difference in incubation time.
(§16) For the data analysis, the pre-incubation times for the different concentration of the inhibitor versus the remaining enzyme activity were plotted, so from the linear regression the slope of each concentration of the probe was obtained ( Table S3). Then the 1/slope versus 1/[inhibitor] were plotted (Figure 4) and from the linear regression line ki was derived from the 1/y -intercept and derived from the slope times the ki as described by Kitz and Wilson.
For example, for the probe 8 the equation is: Y = 7,476*X + 5,069
So, the kinact and the KI values are: kinact =1/5,069 =0.20 min-1
(also on this page, place not known: -1 0 1 2 3 0 50 100 log [FM011] (µM) DDT (%) -1 0 1 2 3 0 50 100 log [ZP308] (µM) DDT activity (%) 0.0 0.5 1.0 1.5 2.0 0 50 100 log [ZP307] (µM) DDT activity (%) 1.4 1.6 1.8 2.0 2.2 0 50 100 log [FM031] (µM) DDT activity (%) pre -incubation cond itions pre -incubation activity o f (Table 1/y-intercept) […]
(§17) Table S4. Kinetics studies results.
(§18) Time-dependent inhibition Kitz and Wilson curve […]
ln (MIF tautomerase activity %)
Time-dependent inhibition on MIF Y = 7,476*X + 5,069
Time-dependent inhibition on MIF Y = 12,07*X + 4,234 […]
ln (MIF2 tautomerase activity %)
(§19) Time-dependent inhibition on MIF2 Y = 299,5*X + 11,14 […]

MIF2 [6] = molecular target: T2, MIF2; assay: Kitz-Wilson inactivation kinetics on MIF2 tautomerase; format: biochemical; conditions: Kitz-Wilson analysis, ±SD, n=3
Protocol: as §15, §16
For example, for the probe 8 the equation is: Y = 7,476*X + 5,069 […]
as §17, §18
ln (MIF tautomerase activity %) […]
as §19

[7] = Table 1, tautomerase activity, mean±SD, n=3, read-out: IC50 MIF
[8] = Table 1, tautomerase activity, mean±SD, n=3, read-out: IC50 MIF2
[9] = Table S1, 10 min, read-out: IC50 (µM) MIF
[10] = Table S1, 10 min, read-out: IC50 (µM) MIF2
[11] = Table 2, 10 min pre-incubation, ±SD, n=3, read-out: IC50 MIF
[12] = Table 2, 10 min pre-incubation, ±SD, n=3, read-out: IC50 MIF2

Row | SMILES | IC50 (MIF [1]; [7]) | IC50 (MIF2 [2]; [8]) | IC50 (MIF [1]; [9]) | IC50 (MIF2 [2]; [10]) | other results
1 | Ic1cc(-c2ccccc2)ncn1 [Compound 1, 4‐iodo‐6‐phenylpyrimidine, reference compound] | 4 ± 0.98 µM | > 250 µM | – | – | potency relative to corresponding chloro-substituted intermediate (MIF [1]; Table S1): at least two times more potent
2 | Clc1cc(-c2ccccc2)ncn1 [Compound 1a] | – | – | 16 µM | > 250 µM | –
3 | O=C(O)c1ccc(-c2cc(I)ncn2)cc1 [Compound 2] | 5 ± 0.46 µM | 125 ± 15 µM | – | – | labeling of MIF by probe 8 after prior treatment with inhibitor (MIF [3]): abolished; potency relative to corresponding chloro-substituted intermediate (MIF [1]; Table S1): at least two times more potent; labeling of MIF2 by probe 8 after pre-incubation with inhibitor (MIF2 [4]): outcompeted
4 | O=C(O)c1ccc(-c2cc(Cl)ncn2)cc1 [Compound 2a] | – | – | 17 µM | > 250 µM | –
5 | Cc1nc(I)cc(-c2ccc(C(=O)O)cc2)n1 [Compound 3] | > 250 µM | > 250 µM | – | – | –
6 | Cc1nc(Cl)cc(-c2ccc(C(=O)O)cc2)n1 [Compound 3a] | – | – | 95 µM | 103 µM | IC50 (MIF [1]; Table S2 dose-inhibition curves, read-out: IC50 MIF tautomerase): 72 ± 17 µM; IC50 (MIF2 [2]; Table S3 dose-inhibition curves (DDT activity), read-out: IC50 MIF2 tautomerase): 107 ± 6 µM
7 | O=C(O)c1ccc(-c2cc(I)nc(N3CCOCC3)n2)cc1 [Compound 4] | 15 ± 7.5 µM | > 250 µM | – | – | potency relative to corresponding chloro-substituted intermediate (MIF [1]; Table S1): at least two times more potent
8 | O=C(O)c1ccc(-c2cc(Cl)nc(N3CCOCC3)n2)cc1 [Compound 4a] | – | – | 174 µM | > 250 µM | –
9 | O=C(O)c1ccc(-c2cc(I)nc(-c3ccccc3)n2)cc1 [Compound 5, 4-(6-Iodo-2-phenylpyrimidin-4-yl)benzoic acid] | 59 ± 6.3 µM | > 250 µM | – | – | –
10 | O=C(O)c1ccc(-c2cc(Cl)nc(-c3ccccc3)n2)cc1 [Compound 5a, 4-(6-Chloro-2-phenylpyrimidin-4-yl)benzoic acid] | – | – | 36 µM | 85 µM | –
11 | Cc1c(I)ncnc1-c1ccc(C(=O)O)cc1 [Compound 6, 4-(6-Iodo-5-methylpyrimidin-4-yl)benzoic acid] | 56 ± 12 µM | > 250 µM | – | – | potency relative to corresponding chloro-substituted intermediate (MIF [1]; Table S1): at least two times more potent
12 | Cc1c(Cl)ncnc1-c1ccc(C(=O)O)cc1 [Compound 6a, 4-(6-Chloro-5-methylpyrimidin-4-yl)benzoic acid] | – | – | > 250 µM | > 250 µM | –
13 | O=[N+]([O-])c1ccc(-c2cc(I)ncn2)cc1 [Compound 7, 4-Iodo-6-(4-nitrophenyl)pyrimidine] | 0.63 ± 0.06 µM | > 250 µM | – | – | KI (inactivation) (MIF [5]): 3.9 ± 0.7 µM; kinact (MIF [5]): 0.00467 s⁻¹; IC50 (MIF [1]; [11]): 0.63 ± 0.06 µM; selectivity for MIF over MIF2 (MIF [1]; from tautomerase IC50 values): > 400 fold; potency relative to corresponding chloro-substituted intermediate (MIF [1]; Table S1): at least two times more potent; IC50 (MIF2 [2]; [12]): > 250 µM
14 | O=[N+]([O-])c1ccc(-c2cc(Cl)ncn2)cc1 [Compound 7a, 4-Chloro-6-(4-nitrophenyl)pyrimidine] | – | – | 1.4 µM | > 250 µM | –
15 | Nc1ccc(-c2cc(Cl)ncn2)cc1 [Compound 8a, 4-(6-Chloropyrimidin-4-yl)aniline] | – | – | 1.7 µM | 83 µM | –
16 | O=C(CCCC[C@@H]1SC[C@@H]2NC(=O)N[C@@H]21)NCCNC(=O)c1ccc(-c2cc(I)ncn2)cc1 [Compound 9] | – | – | – | – | KI on MIF relative to IC50 (MIF [5]; KI higher than IC50): about 10 times; KI (inactivation) (MIF [5]): 2.8 ± 0.67 µM; kinact (MIF [5]): 0.004 s⁻¹; IC50 (MIF [1]; [11]): 0.24 ± 0.05 µM; IC50 (MIF [1]; approximate, read-out: IC50 on MIF): ~0.2 µM; improvement of potency for MIF2 inhibition compared to parental inhibitor 2 (MIF2 [2]): 2–6 factor; IC50 (MIF2 [2]; [12]): 78 ± 7.7 µM; kinact MIF2 (rate of enzyme inactivation) (MIF2 [6]): 0.061 ± 0.010 min⁻¹; KI (inactivation) (MIF2 [6]; read-out: KI MIF2 (inhibition constant)): 85 ± 8.6 µM; kinact (MIF2 [6]; read-out: kinact MIF2 (rate of enzyme inactivation)): 0.001 to 0.0015 s⁻¹
17 | CC(C)c1nc(I)cc(-c2ccc(C(=O)O)cc2)n1 [Compound 11, 4-(6-Iodo-2-isopropylpyrimidin-4-yl)benzoic acid] | – | – | 112 µM | > 250 µM | –
18 | CC(C)c1nc(Cl)cc(-c2ccc(C(=O)O)cc2)n1 [Compound 11a, 4-(6-Chloro-2-isopropylpyrimidin-4-yl)benzoic acid] | – | – | > 250 µM | > 250 µM | –

— article PMC9299485, “4‐Iodopyrimidine Labeling Reveals Nuclear Translocation and Nuclease Activity for Both MIF and MIF2” (Chemistry (Weinheim an Der Bergstrasse, Germany), 2021)
